This note sets out measurements from ChEMBL document CHEMBL1134929, “Synthesis and biological activity of potent heterocyclic thiol-based inhibitors of endothelin-converting enzyme-1” (Bioorg Med Chem Lett, 2002).

The test system of experiment [1] is Rattus norvegicus. Put plainly: Compound was evaluated for its ability to inhibit the Endothelin 1 induced pressor response in anesthetized rats intravenous administration of 10 mg/kg. The format is functional.
Experiment [2] addresses T1, Endothelin-converting enzyme 1 (Homo sapiens, UniProt P42892).
T1 sequence (P42892 whole entry): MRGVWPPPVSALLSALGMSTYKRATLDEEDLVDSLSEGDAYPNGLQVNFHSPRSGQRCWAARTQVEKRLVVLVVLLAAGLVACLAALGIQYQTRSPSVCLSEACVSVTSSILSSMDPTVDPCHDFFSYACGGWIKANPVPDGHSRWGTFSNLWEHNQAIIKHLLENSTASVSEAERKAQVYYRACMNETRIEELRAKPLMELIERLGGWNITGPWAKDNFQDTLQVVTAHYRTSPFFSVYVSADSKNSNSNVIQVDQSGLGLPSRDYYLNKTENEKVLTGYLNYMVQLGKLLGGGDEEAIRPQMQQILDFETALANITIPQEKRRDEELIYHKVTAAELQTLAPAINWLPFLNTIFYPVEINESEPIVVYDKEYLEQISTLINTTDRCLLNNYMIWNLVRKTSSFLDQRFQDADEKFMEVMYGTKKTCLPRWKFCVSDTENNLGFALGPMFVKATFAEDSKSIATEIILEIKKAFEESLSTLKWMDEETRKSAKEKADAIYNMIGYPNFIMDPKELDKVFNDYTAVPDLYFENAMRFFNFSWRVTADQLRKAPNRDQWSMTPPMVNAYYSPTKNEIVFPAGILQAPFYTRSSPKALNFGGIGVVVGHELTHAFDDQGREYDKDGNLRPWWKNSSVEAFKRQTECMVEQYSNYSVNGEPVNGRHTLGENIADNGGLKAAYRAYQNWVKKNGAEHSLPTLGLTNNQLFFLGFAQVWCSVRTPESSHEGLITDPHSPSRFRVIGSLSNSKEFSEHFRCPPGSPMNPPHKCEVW
Description: In vitro inhibition of Endothelin-converting enzyme 1.

Experiment [3] deals with Rattus norvegicus. Description: Compound was evaluated for its ability to inhibit the Endothelin 1 induced pressor response in rats upon oral administration of 3-30 mg/kg at 2 hr post dosing. The format is functional.
Experiment [4] has as its system Rattus norvegicus. Description: Compound was evaluated for its ability to inhibit the Endothelin 1 induced pressor response in anesthetized rats upon oral administration of 3 mg/kg at 0.5 hr post dosing. The format is functional.
In experiment [5] the test system is Rattus norvegicus. Description: Compound was evaluated for its ability to inhibit the Endothelin 1 induced pressor response in anesthetized rats upon oral administration of 3 mg/kg at 8 hr post dosing. The format is functional.
Experiment [6] deals with Rattus norvegicus. Put plainly: Compound was evaluated for its ability to inhibit the Endothelin 1 induced pressor response in anesthetized rats iupon oral administration of 3 mg/kg at 4 hr post dosing. The format is functional.
The test system of experiment [7] is Rattus norvegicus. Description: Compound was evaluated for its ability to inhibit the Endothelin 1 induced pressor response in anesthetized rats upon oral administration of 3 mg/kg at 2 hr post dosing. The format is functional.
The test system of experiment [8] is Rattus norvegicus. Put plainly: Compound was evaluated for its ability to inhibit Endothelin 1 induced increase in mean arterial pressure (MAP) after 15 min of dosing (20 mg/kg) in rats. The format is functional, Artery.

For orientation: inhibition in vivo means the percentage by which the read-out fell short of the control. Lower therefore signals a response near the control. In the case of `CC(C)[C@H](S)C(=O)NC1(C(=O)N[C@@H](Cc2ccc(-c3ccccc3)cc2)C(=O)O)CCCC1`, testing at 10 mg/kg in the experiment on Rattus norvegicus [1] gave an inhibition in vivo of 40%.

One may read the IC50 as the concentration that inhibits the measured activity by half. Low values mean inhibition by little substance, high ones a need for much substance. `CC(C)[C@H](S)C(=O)NC1(C(=O)NC(Cc2ccc(-c3ccoc3)nc2)C(=O)O)CCCC1` (stereo partly specified): it took 39 nM to reach half-maximal inhibition in experiment [2] (IC50).

Consider `CC(C)[C@H](S)C(=O)NC1(C(=O)NC(Cc2ccc(-c3cccc(N)c3)nc2)C(=O)O)CCCC1` (stereo partly specified), for which half-maximal inhibition in experiment [2] (IC50) required 64 nM.

For orientation: Inhibition means how much of the control response was suppressed. Low readings indicate a response near the control, high ones a response far below the control. In the experiment with Rattus norvegicus [3], `COC(=O)[C@H](Cc1ccc(-c2cccs2)nc1)NC(=O)C1(NC(=O)[C@H](CC(C)C)SC(C)=O)CCCC1` came in with an Inhibition of 65%. In addition, the inhibition in vivo at 3 mg/kg in the experiment with Rattus norvegicus [4] came out at 90%; in the experiment on Rattus norvegicus [5] it was 34%; in the experiment on Rattus norvegicus [6] it was 70%; in the experiment on Rattus norvegicus [7] it was 82%.

With `CC(C)C[C@H](S)C(=O)NC1(C(=O)N[C@@H](Cc2ccc(-c3cccs3)nc2)C(=O)O)CCCC1`, the 50% inhibitory concentration (IC50) in experiment [2] was 9.5 nM. In addition, the inhibition in vivo at 10 mg/kg in the experiment with Rattus norvegicus [1] was determined as 61%. Also, the “Increase in MAP” value in the experiment with Rattus norvegicus [8] is 77%.
